Experimental data as given in patent publication US9049858B2, “Pest controlling composition and method for controlling pest” (SUMITOMO CHEMICAL COMPANY, LIMITED, priority 2010, dated 2015).

Test system: gray mold fungus (Botrytis cinerea)
Assay: Cucumber leaf disk preventive test against gray mold fungus
Format: in vivo
Conditions: 15° C., six days
Method: True leaf of cucumber was punched out with cork borer to 13 mm in diameter to prepare a leaf disk. In 24 well microwell plate that was dispensed with 1 ml 0.8% water agar, the leaf disk was placed such that the upper side of the leaf was in an upward direction. […] Control where 20 micro liter ion-exchange water was spread was prepared (for non-treated group). After confirming that the spray solution was dried, conidium of gray mold fungus (Botrytis cinerea) was suspended into potato dextrose broth (DIFCO) in a density, of about 10^5 conidia/mL and was then subjected to a spray inoculation. After leaving to stand the leaf disk in a growth chamber set up at 15° C. for six days, an onset area on each leaf was measured and a preventive value was then calculated by the following equation 1.
The same above operations were carried out using spinetoram or spinosad instead of abamectin, so as to obtain the respective preventive values. Preventive value(%)=100×(A−B)/A (Equation 1)
A: an onset area rate of plant belonging to non-treated group
B: an onset area rate of plant belonging to treated group onset area rate=(onset area of the leaf disk)/(the total area of the leaf disk)
The same above operations as described in Test Examples 1 to 6 were carried out using emamectin-benzoate, lepimectin or milbemectin instead of abamectin, so as to obtain the respective preventive values. […]

SMILES: CNC(=O)C(OC)c1ccccc1COc1cc(C)ccc1C (centres unmarked) [the present amide compound]
- preventive value (%) (the present amide compound alone 1.0 ppm (dimethyl sulfoxide solution)): 46%
- preventive value (%) (the present amide compound alone 2.5 ppm (dimethyl sulfoxide solution)): 56%
